Drawing on patent US8883801B2, “Substituted pyrazolo[1,5-a]pyrimidines as mTOR inhibitors” (Merck Sharp & Dohme Corp., priority 2010, dated 2014), this text covers IC50 for 23 molecules.

Molecules are shown by their SMILES.

The test deals with human mTOR enzyme (Homo sapiens, UniProt P42345). The experiment in a line: HTRF mTOR enzyme (kinase) assay. The following applies: rated class; 5 μM ATP, 0.2 μM GST-S6K; read-out: hMTOR IC50. Format: biochemical. As to the method: Methods: An HTRF mTOR enzyme assay was developed to assess the compounds' inhibitory activity. The mTOR assay buffer contained 10 mM Hepes (pH 7.4), 50 mM NaCl, […] BSA, 50 mM […], 10 mM MnCl2 and 0.5 mM DTT. […] 20 ng of human mTOR enzyme (<5% pure was preincubated with the compound for 10 minutes followed by the addition of 5 μM ATP and 0.2 μM GST-S6K (Zhang et al., Protein Expression and Purification 46, pp 414-420 (2006)). The reaction was incubated for one hour at 30° C. Anti phospho p70-S6K(Thr389) (˜1.7 ng/well, anti-phospho-p70S6K-cryptate (Pho-p70S6-Kin-K cat#64CUSKAY, from Cisbio)) and anti GST-XL665 (1:1 Ratio with the substrate GST-S6K, anti GST-XL665, cat#61GSTXLB) Cisbio) were added after the reaction was stopped. The plates were read (PHERAstar, BMG) at least 2 hours after adding the anti phospho p70-S6K and the anti GST-XL665.
Chain of human mTOR enzyme (P42345 1360-2549 limits assumed): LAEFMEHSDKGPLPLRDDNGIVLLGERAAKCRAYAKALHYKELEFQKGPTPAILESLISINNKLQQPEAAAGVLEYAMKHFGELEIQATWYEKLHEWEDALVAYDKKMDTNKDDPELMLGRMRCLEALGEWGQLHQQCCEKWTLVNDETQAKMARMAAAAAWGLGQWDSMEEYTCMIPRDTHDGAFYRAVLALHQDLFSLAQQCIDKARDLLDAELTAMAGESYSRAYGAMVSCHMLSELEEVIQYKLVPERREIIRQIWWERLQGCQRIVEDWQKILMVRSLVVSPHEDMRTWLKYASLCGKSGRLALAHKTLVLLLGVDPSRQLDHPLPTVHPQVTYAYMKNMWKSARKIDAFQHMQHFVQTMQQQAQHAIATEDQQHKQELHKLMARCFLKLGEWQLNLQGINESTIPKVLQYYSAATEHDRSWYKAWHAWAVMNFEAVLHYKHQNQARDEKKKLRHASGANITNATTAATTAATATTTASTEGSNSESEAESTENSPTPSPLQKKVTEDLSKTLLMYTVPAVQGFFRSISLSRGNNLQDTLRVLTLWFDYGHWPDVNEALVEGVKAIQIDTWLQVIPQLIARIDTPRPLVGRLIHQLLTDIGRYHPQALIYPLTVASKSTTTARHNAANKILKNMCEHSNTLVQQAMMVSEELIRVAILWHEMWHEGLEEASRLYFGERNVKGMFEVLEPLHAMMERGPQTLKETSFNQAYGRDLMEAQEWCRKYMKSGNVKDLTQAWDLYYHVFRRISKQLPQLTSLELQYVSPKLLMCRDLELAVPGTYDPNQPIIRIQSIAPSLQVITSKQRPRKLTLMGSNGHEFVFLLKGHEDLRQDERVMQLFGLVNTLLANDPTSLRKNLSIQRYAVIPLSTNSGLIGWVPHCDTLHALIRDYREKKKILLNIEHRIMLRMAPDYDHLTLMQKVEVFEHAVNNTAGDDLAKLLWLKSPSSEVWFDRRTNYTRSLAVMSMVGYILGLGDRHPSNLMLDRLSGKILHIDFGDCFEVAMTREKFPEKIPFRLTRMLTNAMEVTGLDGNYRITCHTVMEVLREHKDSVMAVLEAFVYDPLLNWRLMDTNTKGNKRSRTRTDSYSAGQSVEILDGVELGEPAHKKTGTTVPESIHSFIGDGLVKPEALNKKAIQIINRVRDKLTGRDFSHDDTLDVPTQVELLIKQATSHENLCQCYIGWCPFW
IC50 DETERMINATIONS: Dose-response curves were plotted from the inhibition data generated, each in duplicate, from 8 point serial dilutions of inhibitory compounds. Concentration of compound was plotted against the HTRF em665/em590 ratio signal. To generate IC50 values, the dose-response curves were fitted to a standard sigmoidal curve and IC50 values were derived by nonlinear regression analysis.
In general terms: TR-FRET usually uses a lanthanide donor and a delayed reading to cut background.
What is called IC50 is the concentration at which inhibition is half-maximal. As for `COCCO[C@]1(C(=O)O)CC[C@H](c2nc3c(-c4ccc(-c5cscn5)nc4)cnn3c(N)c2C(C)=O)CC1` [Compound 61, (1S,4S)-4-(6-acetyl-7-amino-3-(6-(thiazol-4-yl)pyridin-3-yl)pyrazolo[1,5-a]pyrimidin-5-yl)-1-(2-methoxyethoxy) cyclohexanecarboxylic acid], the half-maximal inhibitory concentration (IC50) lay in the range of 1 to 100 nM.
With `COCCO[C@]1(C(=O)N(C)OC)CC[C@@H](c2nc3c(-c4cnn(-c5ccccc5)c4)cnn3c(N)c2S(C)(=O)=O)CC1` [Compound 97, (1R,4R)-4-(7-amino-6-(methylsulfonyl)-3-(1-phenyl-1H-pyrazol-4-yl)pyrazolo[1,5-a]pyrimidin-5-yl)-N-methoxy-1-(2-methoxyethoxy)-N-methylcyclohexane-carboxamide], the IC50 lay within 1 to 100 nM.
On to `COCC1(CO)CCC(c2nc3c(-c4cnn(-c5ccccc5)c4)cnn3c(N)c2Br)CC1` (centres unmarked) [Compound 167, (4-(7-amino-6-bromo-3-(1-phenyl-1H-pyrazol-4-yl)pyrazolo[1,5-a]pyrimidin-5-yl)-1-(methoxymethyl)-cyclohexyl)methanol], for which the IC50 lay within 1 to 100 nM.
In the case of `COCCO[C@]1(C(=O)NOCC2CC2)CC[C@@H](c2nc3c(-c4cnn(-c5ccccc5)c4)cnn3c(N)c2S(C)(=O)=O)CC1` [Compound 99, (1R,4R)-4-(7-amino-6-(methylsulfonyl)-3-(1-phenyl-1H-pyrazol-4-yl)pyrazolo[1,5-a]pyrimidin-5-yl)-N-(cyclopropylmethoxy)-1-(2-methoxyethoxy)-cyclohexane-carboxamide], the IC50 is 1 to 100 nM.
Take `COCCO[C@]1(C(=O)O)CC[C@@H](c2nc3c(-c4cnc(-c5ccn(C)n5)nc4)cnn3c(N)c2S(C)(=O)=O)CC1` [Compound 49, (1R,4R)-4-(7-amino-3-(2-(1-methyl-1H-pyrazol-3-yl)pyrimidin-5-yl)-6-(methylsulfonyl)-pyrazolo[1,5-a]-pyrimidin-5-yl)-1-(2-mcthoxyethoxy)-cyclohexanecarboxylic acid]: the IC50 was in the range of 1 to 100 nM.
In the case of `COCCO[C@]1(C(=O)O)CC[C@H](c2nc3c(-c4ccc(-c5nccs5)nc4)cnn3c(N)c2C(C)=O)CC1` [Compound 59], the IC50 was in the range of 1 to 100 nM.
Consider `CC(=O)c1c(C2CCC(O)(CO)CC2)nc2c(-c3ccc(-c4cccc(C(=O)O)c4)nc3)cnn2c1N` (centres unmarked) [Compound 151, 3-(5-(6-acetyl-7-amino-5-(4-hydroxy-4-(hydroxymethyl)-cyclohexyl)-pyrazolo-[1,5-a]pyrimidin-3-yl)pyridin-2-yl)benzoic acid], for which the IC50 was 1 to 100 nM.
Take `CO[C@]1(CC(=O)O)CC[C@@H](c2nc3c(-c4ccc(-c5ccccc5)nc4)cnn3c(N)c2Br)CC1` [Compound 81]: the IC50 lay within 100 to 1000 nM.
`COC[C@]1(C(=O)O)CC[C@H](c2nc3c(-c4cnn(-c5ccccc5)c4)cnn3c(N)c2C(C)=O)CC1` [Compound 20, (1R,4R)-4-(6-acetyl-7-amino-3-(1-phenyl-1H-pyrazol-4-yl)pyrazolo[1,5-a]pyrimidin-5-yl)-1-(methoxymethyl)-cyclohexane-carboxylic acid]: the IC50 was in the range of 100 to 1000 nM.
Consider `CCONC(=O)[C@]1(OCCOC)CC[C@H](c2nc3c(-c4cnn(-c5ccccc5)c4)cnn3c(N)c2S(C)(=O)=O)CC1` [Compound 98, (1R,4R)-4-(7-amino-6-(methylsulfonyl)-3-(1-phenyl-1H-pyrazol-4-yl)pyrazolo[1,5-a]pyrimidin-5-yl)-N-ethoxy-1-(2-methoxyethoxy)-cyclohexane-carboxamide], for which the IC50 was in the range of 1 to 100 nM.
With `CC(=O)c1c(N)n2ncc(-c3cnn(-c4cnn(C)c4)c3)c2nc1[C@H]1CC[C@](O)(CO)CC1` [Compound 149, 1-(7-amino-5-((1S,4S)-4-hydroxy-4-(hydroxymethyl)-cyclohexyl)-3-(1′-methyl-1′H-1,4′-bipyrazol-4-yl)pyrazolo[1,5-a]pyrimidin-6-yl)ethanone], the IC50 lay within 100 to 1000 nM.
Under `CO[C@]1(CC(=O)O)CC[C@H](c2nc3c(-c4ccc(-c5ccccc5)nc4)cnn3c(N)c2Br)CC1` [Compound 80, 2-((1S,4S)-4-(7-amino-6-bromo-3-(6-phenylpyridin-3-yl)pyrazolo[1,5-a]pyrimidin-5-yl)-1-methoxycyclohexyl)acetic acid] stands 100 to 1000 nM; under `COCCO[C@]1(C(=O)O)CC[C@@H](c2nc3c(-c4ccc(-c5ccn(C)n5)[n+]([O-])c4)cnn3c(N)c2S(C)(=O)=O)CC1` [Compound 45, 5-(7-amino-5-((1R,4R)-4-carboxy-4-(2-methoxyethoxy)cyclohexyl)-6-(methylsulfonyl)-pyrazolo[1,5-a]pyrimidin-3-yl)-2-(1-methyl-1H-pyrazol-3-yl)pyridine 1-oxide], 1 to 100 nM; under `COCCO[C@]1(C(=O)CO)CC[C@@H](c2nc3c(-c4ccc(-c5ccccc5)nc4)cnn3c(N)c2S(C)(=O)=O)CC1` [Compound 130, 1-((1R,4R)-4-(7-amino-6-(methylsulfonyl)-3-(6-phenylpyridin-3-yl)pyrazolo[1,5-a]pyrimidin-5-yl)-1-(2-methoxyethoxy)cyclohexyl)-2-hydroxyethanone], 1 to 100 nM.
As for `COCCO[C@]1(C(=O)c2nnc[nH]2)CC[C@H](c2nc3c(-c4ccc(-c5ccccc5)nc4)cnn3c(N)c2S(C)(=O)=O)CC1` [Compound 124, ((1S,4S)-4-(7-amino-6-(methylsulfonyl)-3-(6-phenylpyridin-3-yl)pyrazolo[1,5-a]pyrimidin-5-yl)-1-(2-methoxyethoxy)cyclohexyl)(4H-1,2,4-triazol-3-yl)methanone], the IC50 lay in the range of 1 to 100 nM.
For `COC(=O)c1cc(-c2ccc(-c3cnn4c(N)c(C(C)=O)c([C@H]5CC[C@](O)(CO)CC5)nc34)cn2)ccc1OC` [Compound 154, methyl 5-(5-(6-acetyl-7-amino-5-((1S,4S)-4-hydroxy-4-(hydroxymethyl)-cyclohexyl)-pyrazolo-[1,5-a]pyrimidin-3-yl)pyridin-2-yl)-2-methoxybenzoate], the IC50 lay within 1 to 100 nM.
In the case of `COC[C@]1(O)CC[C@H](c2nc3c(-c4ccc(-c5ccccc5)nc4)cnn3c(N)c2Br)CC1` [Compound 163, (1R,4R)-4-(7-amino-6-bromo-3-(6-phenylpyridin-3-yl)pyrazolo[1,5-a]pyrimidin-5-yl)-1-(methoxymethyl)cyclohexanol], the IC50 lay within 1 to 100 nM.
Consider `COCCO[C@]1(C(=O)O)CC[C@@H](c2nc3c(-c4cnn(-c5ccc(S(C)(=O)=O)cc5)c4)cnn3c(N)c2S(C)(=O)=O)CC1` [Compound 53, (1R,4R)-4-(7-amino-6-(methylsulfonyl)-3-(1-(4-(methylsulfonyl)phenyl)-1H-pyrazol-4-yl)pyrazolo[1,5-a]pyrimidin-5-yl)-1-(2-methoxyethoxy)cyclohexanecarboxylic acid], for which the IC50 is 100 to 1000 nM.
To `COCCONC(=O)[C@]1(OCCOC)CC[C@H](c2nc3c(-c4cnn(-c5ccccc5)c4)cnn3c(N)c2S(C)(=O)=O)CC1` [Compound 101] belongs 1 to 100 nM; to `COCCO[C@]1(C(=O)NOCC2CC2)CC[C@@H](c2nc3c(-c4ccc(-c5ccccc5)nc4)cnn3c(N)c2S(C)(=O)=O)CC1` [Compound 106, (1R,4R)-4-(7-amino-6-(methylsulfonyl)-3-(6-phenylpyridin-3-yl)pyrazolo[1,5-a]pyrimidin-5-yl)-N-(cyclopropylmethoxy)-1-(2-methoxyethoxy)-cyclohexane-carboxamide], 1 to 100 nM; to `COC(=O)c1cccc(-c2ccc(-c3cnn4c(N)c(C(C)=O)c(C5CCC(O)(CO)CC5)nc34)cn2)c1` (centres unmarked) [Compound 150, methyl 3-(5-(6-acetyl-7-amino-5-(4-hydroxy-4-(hydroxymethyl)-cyclohexyl)-pyrazolo-[1,5-a]pyrimidin-3-yl)pyridin-2-yl)benzoate], 1 to 100 nM.
With `COCCO[C@]1(C(=O)c2nnc[nH]2)CC[C@H](c2nc3c(-c4cnn(-c5ccccc5)c4)cnn3c(N)c2S(C)(=O)=O)CC1` [Compound 123, ((1S,4S)-4-(7-amino-6-(methylsulfonyl)-3-(1-phenyl-1H-pyrazol-4-yl)pyrazolo[1,5-a]pyrimidin-5-yl)-1-(2-methoxyethoxy)cyclohexyl)(4H-1,2,4-triazol-3-yl)methanone], the IC50 lay within 1 to 100 nM.
For `CC(=O)c1c(C2CCC(O)(CO)CC2)nc2c(-c3ccc(-c4ccc(O)nc4)nc3)cnn2c1N` (centres unmarked) [Compound 147, 1-(7-amino-3-(6′-hydroxy-2,3′-bipyridin-5-yl)-5-(4-hydroxy-4-(hydroxymethyl)-cyclohexyl)-pyrazolo-[1,5-a]pyrimidin-6-yl)ethanone], the IC50 was in the range of 1 to 100 nM.
